Data as given in US7354918B2, “Derivatives of 14.15-dihydro 20.21-dinoreburnamenin-14-ol and applications thereof” (Biocortech, priority 2004, dated 2008).
One block for each compound: values may come before it.

Experiments:
Balb/c variety = test: Tail Suspension Test (TST); assay type: in vivo, Balb/c mice; details: 6-minute period, vehicle 180
Protocol: The behavioural activity test, the Tail Suspension Test (TST) validated by antidepressants (Ref. 7) in the Balb/c variety, was also done for the molecule in the preferred example (Ie1b) at a dose of 1 mg/kg i.p. The experiment given as an example was carried out three days after a single injection and the effect was compared with the effect of imipramine (30 mg/kg i.p. 30 minutes before the test) (see Table 4 below).
The results are the average for n animals.

[1] = tested on: tyrosine hydroxylase (TH) in the Locus Caeruleus (LC); test: TH protein content in the locus caeruleus, direct transfer of brain sections on nitrocellulose, quantitative immunochemistry; assay type: in vivo, Balb/c mice; details: for Quantity of TH measured in the LC: single dose 20 mg/kg i.p., sacrificed three days after injection, average±sem on the entire structure, percent of the average value of the corresponding control group
[2] = tested on: voltage dependent K channels; test: Receptorial profile in vitro on 74 receptors and channels; assay type: binding; details: concentration of 10 micromoles
[3] = tested on: voltage dependent Ca channels; test: as above; assay type: binding; details: concentration of 10 micromoles
[4] = tested on: cells containing TH in the LC; test: Number of TH immunopositive cells in the LC by immunohistochemistry; assay type: in vivo, Balb/c mice
Protocol: The number of immunopositive cells for TH is determined starting from coronal brain sections fixed by immunohistochemistry using the same anatomic sampling.
The results in FIG. 2 show the posterior-anterior distribution of the number of cells containing TH in the LC determined by immunohistochemistry obtained in a control group of Balb/c mice and in a group of mice treated by the molecule with formula (Ie1). Each bar represents the average obtained in each 80 μm anatomic interval in each experimental group±sem. **** indicates p<0.0001 determined by an ANOVA II (treatment factor). […] In the entire structure, the average values found were equal to 996±1 and 1250±58 in the control group and in the treated group respectively. (Administered dose 20 mg/kg i.p. sequential treatment at D0, D3, D6, D9 and D12, animals sacrificed at D16).
This phenomenon may be stabilised by an appropriate sequential treatment (for example: one 20 mg/kg i.p. injection every 3 days for 15 days, see FIG. 2). Under these conditions, the increase in the number of positive supernumerary TH cells that appeared in the LC is still maintained for 24 days after the treatment stopped.

SK+Ca channels = test: Receptorial profile in vitro on 74 receptors and channels; assay type: binding; details: concentration of 10 micromoles
[5] = tested on: cells expressing hypocretins in the lateral hypothalamus; test: Distribution of cells expressing hypocretins in the lateral hypothalamus by immunocytochemistry; assay type: in vivo, Balb/c mice; details: single dose 20 mg/kg i.p.
Protocol: This property is shared with its direct synthesis precursor, the compound with formula (1). Table 3 below illustrates this type of result the two chemical entities:
The distribution of cells expressing hypocretins in the lateral hypothalamus is studied here with posterior—anterior sampling in consecutive 80 μm thick intervals. The cells are identified by immunocytochemistry using specific antibodies. The two molecules studied were administered by i.p. method with a single dose of 20 mg/kg. The animals were sacrificed three days after injection. A population of about a hundred supernumerary cells is thus identified at the posterior third of the cerebral core.

M1 receptors = molecular target: T1, M1 receptors (Homo sapiens, UniProt P11229); test: Receptorial profile in vitro on 74 receptors and channels; assay type: binding; details: concentration of 10 micromoles
T1 sequence (P11229 1-460): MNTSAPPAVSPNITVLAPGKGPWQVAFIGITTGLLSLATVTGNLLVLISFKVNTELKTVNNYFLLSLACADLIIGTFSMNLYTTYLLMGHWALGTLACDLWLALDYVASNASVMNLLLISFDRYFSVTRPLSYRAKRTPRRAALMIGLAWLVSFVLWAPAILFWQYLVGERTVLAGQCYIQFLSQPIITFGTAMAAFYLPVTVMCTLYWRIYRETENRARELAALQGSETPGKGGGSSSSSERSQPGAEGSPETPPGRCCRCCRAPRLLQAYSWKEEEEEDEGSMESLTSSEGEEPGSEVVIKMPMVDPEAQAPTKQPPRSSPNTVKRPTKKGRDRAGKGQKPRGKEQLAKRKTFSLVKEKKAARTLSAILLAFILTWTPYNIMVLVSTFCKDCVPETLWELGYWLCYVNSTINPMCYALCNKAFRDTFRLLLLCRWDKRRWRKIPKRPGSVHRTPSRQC

[6] = tested on: catecholamine transport systems; test: as above; assay type: binding; details: concentration of 10 micromoles
[7] = Biodistribution study (brain, liver) after i.p. and oral administration; assay type: in vivo; details: for share of the cerebral concentration: 45 minutes after p.o. administration of (Ie1) 60 mg/kg
[8] = tested on: voltage dependent Na channels; test: Receptorial profile in vitro on 74 receptors and channels; assay type: binding; details: concentration of 10 micromoles
5HT5A receptors = 5HT5A receptors (Homo sapiens, UniProt P47898); test: as above; assay type: binding; details: concentration of 10 micromoles
Chain of 5HT5A receptors (P47898 whole entry): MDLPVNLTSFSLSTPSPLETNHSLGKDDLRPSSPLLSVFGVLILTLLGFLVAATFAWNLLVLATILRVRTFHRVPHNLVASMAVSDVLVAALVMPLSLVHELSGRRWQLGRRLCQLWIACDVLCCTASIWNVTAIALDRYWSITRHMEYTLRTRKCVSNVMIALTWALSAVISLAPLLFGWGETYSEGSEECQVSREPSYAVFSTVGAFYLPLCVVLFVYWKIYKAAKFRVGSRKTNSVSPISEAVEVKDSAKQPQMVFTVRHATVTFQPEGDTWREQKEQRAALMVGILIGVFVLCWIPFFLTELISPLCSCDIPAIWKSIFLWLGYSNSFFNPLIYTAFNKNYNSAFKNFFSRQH

[9] = tested on: positive TH fibres of the prefrontal cortex; test: Positive TH (noradrenergic) fibres in the prefrontal cortex by immunocytochemistry; assay type: in vivo, Balb/c mouse; details: 5 i.p. injections 20 mg/kg every three days, sacrificed three days after the last injection
Text: The results in FIG. 3 show the distribution of positive TH fibres on a prefrontal cortex sample of the Balb/c mouse. At left: in a control mouse, the typical orientation (parallel to the surface of the cortex) of noradrenergic fibres identified using an immunocytochemical reaction related to the presence of TH protein, is noticed in the molecular layer of the prefrontal cortex. […] The animals were sacrificed three days after the last injection. The dashed lines mark the limit of the molecular layer of the prefrontal cortex.

[10] = Interval 1 (80 μm, posterior-anterior), sacrificed three days after injection
[11] = Interval 2, three days after injection
[12] = Interval 3, three days after injection
[13] = Interval 4, three days after injection
[14] = Interval 5, three days after injection
[15] = Interval 6, three days after injection
[16] = Interval 7, three days after injection
[17] = Interval 8, three days after injection
[18] = Interval 9, three days after injection
[19] = Interval 10, three days after injection
[20] = Interval 11, three days after injection
[21] = Sum of intervals 1-11, three days after injection

activity relative to the other enantiomer (Ie1a) ([1]; mouse, in vivo): twice as active
Compound: 14,15-dihydro 14-(2-morpholin-4-yl-ethoxy) 20,21-dinoreburnamenin [(Ie1b)]
Average immobilisation time (Balb/c variety; 1 mg/kg i.p., three days after a single injection): 130 s

Compound: CCOC(=O)COC1C[C@@H]2CCCN3CCc4c(n1c1ccccc41)[C@@H]23 (mixture of isomers) [(Ia1), (±) (16α) 14,15-dihydro 14-ethoxycarbonylmethoxy-20,21-dinoreburnamenin]
Quantity of TH measured in the LC [1]: 151 ± 5%

Compound: Cc1noc(COC2C[C@@H]3CCCN4CCc5c(n2c2ccccc52)[C@@H]34)n1 (mixture of isomers) [(Ig1), (±) (3β, 16α) 14,15-dihydro 14-(3-methyl-[1,2,4]oxadiazol-5-ylmethoxy) 20,21-dinoreburnamenin]
Quantity of TH measured in the LC [1]: 118 ± 3%

Compound: c1ccc(COC2C[C@@H]3CCCN4CCc5c(n2c2ccccc52)[C@@H]34)cc1 (mixture of isomers) [Compound (Id), (±) (3β, 16α) 14,15-dihydro 14-benzyloxy 20,21-dinoreburnamenin]
Quantity of TH measured in the LC [1]: 129 ± 5%

Compound: c1ccc2c(c1)c1c3n2[C@H](OCCN2CCOCC2)C[C@@H]2CCCN(CC1)[C@@H]32 (racemic) [Compound (Ie1), 14,15-dihydro 14-(2-morpholin-4-yl-ethoxy) 20,21-dinoreburnamenin]
interaction with voltage dependent K channels [2]: no interaction
interaction with voltage dependent Ca channels [3]: no interaction
number of cells containing TH in the LC, entire structure (average) ([4]; 20 mg/kg i.p. sequential treatment at D0, D3, D6, D9 and D12, sacrificed at D16, control group 996±1): 1250±58
time for which the increase in positive supernumerary TH cells in the LC is maintained after the treatment stopped ([4]; one 20 mg/kg i.p. injection every 3 days for 15 days): 24 days
interaction with SK+Ca channels (SK+Ca channels): no interaction
Number of cells expressing hypocretins [5, 10]: 31.9
Number of cells expressing hypocretins [5, 11]: 63.7
Number of cells expressing hypocretins [5, 12]: 125.1
Number of cells expressing hypocretins [5, 13]: 210.5
Number of cells expressing hypocretins [5, 14]: 331.7
Number of cells expressing hypocretins [5, 15]: 369.9
Number of cells expressing hypocretins [5, 16]: 388.7
Number of cells expressing hypocretins [5, 17]: 322.5
Number of cells expressing hypocretins [5, 18]: 216.3
Number of cells expressing hypocretins [5, 19]: 104.8
Number of cells expressing hypocretins [5, 20]: 56.0
Number of cells expressing hypocretins [5, 21]: 2221.1
affinity for M1 receptors (M1 receptors): moderate affinity link may be suspected
50% effective dose (DE50) ([1]; intra-peritoneal (i.p.) method): 0.5 mg/kg
activity relative to direct synthesis precursor with formula (1) ([1]; mouse, in vivo): 30 times
activity by mouth ([1]; oral): active by mouth
50% effective dose (DE50) ([1]; oral (p.o.) method): 1.5 mg/kg
Quantity of TH measured in the LC [1]: 138 ± 4%
interaction with catecholamine transport systems [6]: no interaction
cerebral concentration/hepatic concentration ratio ([7]; 45 minutes after i.p. administration, 20 mg/kg): 0.41
cerebral concentration/hepatic concentration ratio ([7]; 45 minutes after os administration, 60 mg/kg): 0.49
share of the cerebral concentration [7]: 89%
interaction with voltage dependent Na channels [8]: no interaction
affinity for 5HT5A receptors (5HT5A receptors): moderate affinity link may be suspected
density of noradrenergic fibres in the prefrontal cortex [9]: very significant increase

Compound: O=C(COC1CC2CCCN3CCc4c(n1c1ccccc41)C23)NCCN1CCOCC1 (racemic) [Compound (If1), (±) (3β, 16α) 14,15-dihydro 14-[(2-morpholin-4-yl-ethylcarbamoyl)-methoxy]20,21-dinoreburnamenin]
increase of the total TH content in the LC ([1]; FIG. 1, 3 days after a single i.p. injection (20 mg/kg), versus control mice): 13±3%
Quantity of TH measured in the LC [1]: 113 ± 4%

Compound: C1=Cn2c3c(c4ccccc42)CCN2CCC[C@@H]1[C@H]32 [(Ij1)]
Quantity of TH measured in the LC [1]: 123 ± 2%

presence of the substance after i.p. administration of compound (Ie1) ([7]; 45 minutes after i.p. administration of (Ie1) 20 mg/kg): undetectable
share of the cerebral concentration [7]: 11%
Compound: OC1C[C@H]2CCCN3CCc4c(n1c1ccccc41)[C@@H]23 (stereo partly drawn) [Compound (1), 14,15 dihydro-20,21-dinoreburnamenin14-ol, reference compound]
Number of cells expressing hypocretins [5, 10]: 60.357
Number of cells expressing hypocretins [5, 11]: 116.369
Number of cells expressing hypocretins [5, 12]: 177.209
Number of cells expressing hypocretins [5, 13]: 317.237
Number of cells expressing hypocretins [5, 14]: 367.454
Number of cells expressing hypocretins [5, 15]: 377.594
Number of cells expressing hypocretins [5, 16]: 365.523
Number of cells expressing hypocretins [5, 17]: 236.600
Number of cells expressing hypocretins [5, 18]: 136.166
Number of cells expressing hypocretins [5, 19]: 60.840
Number of cells expressing hypocretins [5, 20]: 23.177
Number of cells expressing hypocretins [5, 21]: 2238.526
Quantity of TH measured in the LC [1]: 120 ± 4%

Compound: CN(C)CCCN1c2ccccc2CCc2ccccc21 [Imipramine, imipramine, reference compound]
Average immobilisation time (Balb/c variety; 30 mg/kg i.p. 30 minutes before the test): 70 s
